Reference: the NIST ThermoML archive (doi:10.1021/je800271e)
± gives the expanded uncertainty stated by the source.

Tests used:
[1] = for viscosity: Liquid
[2] = xn = mol fraction of the nth substance listed; settings: for viscosity: Liquid

OCCO [1,2-ethanediol]
[1]
Settings	surface tension liquid-gas [mN/m]	viscosity [mPa·s]
308.15 K	50.11 ± 1.1	9.212 ± 0.45
313.15 K	48.73 ± 1.1	7.961 ± 0.4
318.15 K	47.25 ± 1.1	6.293 ± 0.34
323.15 K	46.41 ± 1.1	5.447 ± 0.3

O [water] + OCCO
[2], x2 = 0
Settings	surface tension liquid-gas [mN/m]	viscosity [mPa·s]
308.15 K	71.02 ± 1.4	0.721 ± 0.048
313.15 K	69.69 ± 1.4	0.6532 ± 0.045
318.15 K	67.68 ± 1.4	0.59 ± 0.041
323.15 K	66.12 ± 1.4	0.55 ± 0.039

OCCO [1,2-ethanediol] + O
[2]
Settings	surface tension liquid-gas, 308.15 K [mN/m]	surface tension liquid-gas, 313.15 K [mN/m]	surface tension liquid-gas, 318.15 K [mN/m]	surface tension liquid-gas, 323.15 K [mN/m]	viscosity, 308.15 K [mPa·s]	viscosity, 313.15 K [mPa·s]	viscosity, 318.15 K [mPa·s]	viscosity, 323.15 K [mPa·s]
x1 = 0.0145	69.73 ± 1.4	66.55 ± 1.4	65.92 ± 1.4	63.24 ± 1.3	0.7543 ± 0.05	0.7037 ± 0.047	0.6336 ± 0.043	0.5878 ± 0.041
x1 = 0.0312	67.83 ± 1.4	65.58 ± 1.4	63.92 ± 1.3	60.58 ± 1.3	0.8381 ± 0.055	0.764 ± 0.051	0.6785 ± 0.046	0.6321 ± 0.043
x1 = 0.0484	66.13 ± 1.4	64.09 ± 1.3	62.24 ± 1.3	59.62 ± 1.3	0.9241 ± 0.06	0.8372 ± 0.055	0.7424 ± 0.05	0.6876 ± 0.046
x1 = 0.0686	64.57 ± 1.3	62.51 ± 1.3	60.57 ± 1.3	57.96 ± 1.2	1.021 ± 0.065	0.9256 ± 0.06	0.7995 ± 0.053	0.7433 ± 0.05
x1 = 0.0883	63.27 ± 1.3	61.32 ± 1.3	59.21 ± 1.3	56.77 ± 1.2	1.133 ± 0.071	1.017 ± 0.065	0.8755 ± 0.057	0.8133 ± 0.053
x1 = 0.1107	62.14 ± 1.3	60.32 ± 1.3	58.41 ± 1.3	55.75 ± 1.2	1.266 ± 0.079	1.127 ± 0.071	0.9589 ± 0.062	0.8853 ± 0.058
x1 = 0.1621	60.02 ± 1.3	58.1 ± 1.2	56.25 ± 1.2	54.15 ± 1.2	1.574 ± 0.096	1.405 ± 0.087	1.184 ± 0.074	1.082 ± 0.068
x1 = 0.2247	57.51 ± 1.2	55.92 ± 1.2	54.36 ± 1.2	52.15 ± 1.2	2.036 ± 0.12	1.772 ± 0.11	1.48 ± 0.091	1.339 ± 0.083
x1 = 0.3032	56.03 ± 1.2	54.45 ± 1.2	52.66 ± 1.2	50.52 ± 1.1	2.662 ± 0.16	2.298 ± 0.14	1.888 ± 0.11	1.679 ± 0.1
x1 = 0.4035	54.03 ± 1.2	52.41 ± 1.2	50.65 ± 1.1	49.12 ± 1.1	3.512 ± 0.2	3.017 ± 0.18	2.468 ± 0.15	2.179 ± 0.13
x1 = 0.5366	52.47 ± 1.2	50.7 ± 1.1	49.34 ± 1.1	47.88 ± 1.1	4.7 ± 0.27	4.054 ± 0.23	3.283 ± 0.19	2.874 ± 0.17
x1 = 1	50.11 ± 1.1	48.73 ± 1.1	47.25 ± 1.1	46.41 ± 1.1	9.212 ± 0.45	7.961 ± 0.4	6.293 ± 0.34	5.447 ± 0.3
